Converted amounts (≈) assume the structure as drawn. Structures can show the parent of a compound that is named as a salt.
Legend:
S. pyogenes = experiment: Antibacterial in vitro activity (M.I.C.); type: cell-based; settings: micrograms of substance per ml of bacterial suspension
Method: (§1) The M.I.C.s were determined against three pathogenic bacterial strains, and are expressed as micrograms of substance per ml of bacterial suspension […].

S. aureus = experiment: Antibacterial in vitro activity (M.I.C.); type: cell-based; settings: micrograms of substance per ml of bacterial suspension
Method: as §1

H. influenzae = experiment: Antibacterial in vitro activity (M.I.C.); type: cell-based; settings: micrograms of substance per ml of bacterial suspension
Method: as §1

pneumococ bacteria = experiment: Antibacterial in vivo activity in infected rats; set-up: species or system Sprague-Dawley rats; settings: rats infected with LD100 of pneumococ bacteria; orally every twelve hours 25 mg/kg as erythromycin base; 8 days observation
Method: 60 Sprague-Dawley rats of both sexes (3 lots of 20 animals each) were infected with an LD100 of pneumococ bacteria. Said LD100 was determined in 10^6C.F.U. and was given to the rats through tracheal cannula. The death of the animals occurred at the 3rd-4th day. The observation period lasted 8 days.
The obtained results are reported in the fol lowing Table I and are expressed as per cent mortalities over the controls.
Both the dead and the survived animals underwent a hystological examination of the main organs, namely lungs, liver, kidneys, heart and brain.

St Albus ATCC 12228 = experiment: Phagocytosis test on phagocytes of treated patients; type: in vivo; settings: patients with chronical bronchitis, erythromycin 1 gram and/or inosine 182 mg
Method: (§2) of F.F.001 was investigated in a clinical research on patients affected by chronic bronchial infection. The immunostimulating action was determined through the monitorage of the phagocytary and NK cells activity.
2 Ml of a phagocytes suspension (10^6 phagocy- tes/ml) was mixed up in a sterile test tube with 2 ml of St Albus ATCC 12228 (10^6 microorganisms/ ml) suspended in Gelatine "Hanks-solution" with 10% AB serum and 0.4 ml of AB serum.
The mixture was then incubated at 37 degrees C under continuous stirring. 2 Ml of St Albus ATCC 12228 suspended in gelatine "Hanks-solution" with 10% of AB serum (10^6 microorganisms/ml) were mixed up in another sterile test tube with 2.04 ml of Gelatine "Hanks-solution" and incubated under the same conditions described above.
At regular time intervals (0-30 min.-60 min.-90 min.) aliquots of the suspension corresponding to 0.5 ml were added to 1.5 Ml of Gelatine "Hanks-so lution" previously cooled to 4 degrees in order to stop the phagocytosis process.
The samples were then centrifuged for 4 min. at 110 r.p.m. in order to obtain the complete sedimen tation of the leucocytes, while the upper phase consisted of a suspension containing the bacteria (supernatant).
The supernatant liquid was then diluted with a
sterile saline solution (Bacto-haemogglutination Soerensen buffer) at a 1:10 ratio, in order to be sure that at least the last dilution contained a number of living bacteria ranging between 100 and 1000/ml.
Aliquots of 0.1 ml of bacterial suspension were then taken from the […] dilutions and both of them were pipetted on a plate containing Diagnostic Sensitive Test Agar (Oxoid) and immedia tely distributed on the whole surface with a sterile spatula.
The plates were incubated at 37 degrees C for 24 h and the number of colonies was then determined with a colony counter.
The same procedure was followed after having withdrawn aliquots of 0.5 ml of bacterial suspension from the test tube.
Phagocytosis, as a function of time, was determined in vitro and can be expressed as the reduction percent of the number of living bacteria deter mined at the beginning of the experiment (No). [formula]
F(t) is the phagocytosis index after t min., while Nt is the number of living bacteria after t min.
(§3) In the groups 1), 3), 4) and 5) the dose of erythromycin was always 1 gram; in the groups 2), 3), 4) and 5) the corresponding dose of inosine was 182 mg.

K562 = experiment: Natural killer activity test on lymphocytes of treated patients; type: in vivo; settings: same patients and doses, percentage of aspecific lysis of K562
Method: as §2
This test consists in the determination of the percentage of aspecific lysis of a human tumoral target, K562, mediated by circulating lymphocytes.
The lymphocytes were isolated by centrifuging heparinized blood at a 1:1 dilution with physiologic solution or with a solution of "Hanks" salts of "Ficol".
After 30 min. of centrifugation at 1000 r.p.m. a band of stratified leucocytes was obtained over the "Ficol" level.
At the same time the K562 were labelled with ^51Cr by adding the radioisotope solution to a suspension containing […] in 0.5 ml of colture medium.
After 45 min. of incubation at 37 degrees C the cells were washed three times with a solution of "Hanks" salts.
The labelled cells were then incubated with leucocytes at 37 degrees C at various ratios for 4 h, after which the percentage of […] release was determined in the supernatant and assumed to be directly proportional to the K562 cell lysis mediated by leucocytes.
as §3

[1] = Acute toxicity after oral administration; settings: in vivo, rat
[2] = 0 hours (moment of administration), reduction percent of living bacteria
[3] = 0 hours (moment of administration)

| Compound | MIC (S. pyogenes; Streptococcus pyogenes, read-out: minimum inhibiting concentration (M.I.C.)) | MIC (S. aureus; Staphylococcus aureus, read-out: minimum inhibiting concentration (M.I.C.)) | MIC (H. influenzae; Haemophilus influenzae, read-out: minimum inhibiting concentration (M.I.C.)) | Mortality (pneumococ bacteria) | phagocytosis (St Albus ATCC 12228; [2]) | phagocytosis (St Albus ATCC 12228; 2 hours after administration) | phagocytosis (St Albus ATCC 12228; 4 hours after administration) | phagocytosis (St Albus ATCC 12228; 6 hours after administration) | phagocytosis (St Albus ATCC 12228; 8 hours after administration) | phagocytosis (St Albus ATCC 12228; 24 hours after administration) | NK-test (K562; [3]) | NK-test (K562; 2 hours after administration) | NK-test (K562; 4 hours after administration) | NK-test (K562; 6 hours after administration) | NK-test (K562; 8 hours after administration) | NK-test (K562; 24 hours after administration) | LD50 [1] | minimum inhibiting concentration (M.I.C.) (S. pyogenes) | minimum inhibiting concentration (M.I.C.) (S. aureus) | minimum inhibiting concentration (M.I.C.) (H. influenzae) |
| --- | --- | --- | --- | --- | --- | --- | --- | --- | --- | --- | --- | --- | --- | --- | --- | --- | --- | --- | --- | --- |
| CCC(=O)O[C@H]1[C@H](O[C@@H]2[C@@H](C)[C@H](O[C@H]3C[C@@](C)(OC)[C@@H](O)[C@H](C)O3)[C@@H](C)C(=O)O[C@H](CC)[C@@](C)(O)[C@H](O)[C@@H](C)C(=O)[C@H](C)C[C@@]2(C)O)O[C@H](C)C[C@@H]1N(C)C [Er. prop., erythromycin propionate] | 0.04 µg/mL (≈ 0.0506 µM) | 0.35 µg/mL (≈ 0.443 µM) | 0.31 µg/mL (≈ 0.392 µM) | 5% |  |  |  |  |  |  |  |  |  |  |  |  |  |  |  |  |
| CCOC(=O)CCC(=O)O[C@H]1[C@H](O[C@@H]2[C@@H](C)[C@H](O[C@H]3C[C@@](C)(OC)[C@@H](O)[C@H](C)O3)[C@@H](C)C(=O)O[C@H](CC)[C@@](C)(O)[C@H](O)[C@@H](C)C(=O)[C@H](C)C[C@@]2(C)O)O[C@H](C)C[C@@H]1N(C)C [F.F.002, salt of erythromycin ethylsuccinate with inosine-5-phosphoric acid in the molar ratio 2:1] |  |  |  |  | 5-20 | 16-62 | 16-62 | 16-62 | 34-82 | 5-20 | 5.2-17.8 | 44.9-68.2 | 46.1-69.8 | 50.1-71.8 | 52.9-76.1 | 5.2-17.8 |  |  |  |  |
| OC[C@H]1O[C@@H](n2cnc3c(O)ncnc32)[C@H](O)[C@@H]1O [Inosine, inosine] |  |  |  |  | 5-19 | 10-50 | 5-19 | 5-19 | 5-19 | 5-19 | 4.5-19.0 | 10.0-56.5 | 4.5-19.0 | 4.5-19.0 | 4.5-19.0 | 4.5-19.0 |  |  |  |  |
| CC[C@H]1OC(=O)[C@H](C)[C@@H](O[C@H]2C[C@@](C)(OC)[C@@H](O)[C@H](C)O2)[C@H](C)[C@@H](O[C@@H]2O[C@H](C)C[C@H](N(C)C)[C@H]2O)[C@](C)(O)C[C@@H](C)C(=O)[C@H](C)[C@@H](O)[C@]1(C)O [Erythromycin, erythromycin] |  |  |  | 5% | 8-24 | 8-24 | 8-24 | 8-24 | 31-60 | 8-24 | 7.4-23.0 | 7.4-23.0 | 7.4-23.0 | 7.4-23.0 | 45.3-67.8 | 7.4-23.0 | > 6000 mg/kg |  |  |  |
| salt of erythromycin propionate with inosine-5-phosphoric acid in the molar ratio 2:1 [F.F.001] |  |  |  | 0% | 5-20 | 16-62 | 16-62 | 16-62 | 34-82 | 5-20 | 4.9-21.7 | 45.8-68 | 47.3-70.1 | 48.0-71.1 | 50.2-74.2 | 4.9-21.7 |  | 0.036 ℓ/ml | 0.31 ℓ/ml | 0.31 ℓ/ml |

Source: EP0139891A2, “Pharmaceutical compositions with antibiotic-immunostimulating activity” (B.T.B. INDUSTRIA CHIMICA S.p.A., priority 1983, dated 1985)
